These results are taken from publication PMC7817177 (eLife, 2021).

One experiment has as its target T1, ARL3 (Homo sapiens, UniProt P36405).
T1 construct: full-length, C-terminal His6 tag (untagged thrombin-cut version in some assays), E. coli BL21-CodonPlus(DE3)-RIL
Briefly: fluorescence polarisation, competition with mantGDP. It counts as binding. The note with it: 2 uM mantGDP, 2 uM ARL3-GDP, 2 uM ARL13B 18-278 (GEF) present, pH 7.5, 5 mM MgCl2, room temperature, competitive. For orientation: Polarisation of emitted light reports the rotation of a fluorescent probe.

Another experiment addresses T2, ARL3^ΔN (ARL3^17-182) (Homo sapiens, UniProt P36405).
T2 construct: residues 17-182 (N-terminal helix removed), C-terminal His6 tag, E. coli
Kind of experiment: fluorescence polarisation nucleotide exchange, displacement of mantGDP. It counts as binding. The note with it: 150 uM GppNHp with ARL13B 18-278 (GEF); competitive.

Experiment [1] concerns the target ADP-ribosylation factor-like 3 (ARL3), full length (human, UniProt P36405 1-182). Kind of experiment: cell-based or functional assay.

T1 sequence (P36405 2-182): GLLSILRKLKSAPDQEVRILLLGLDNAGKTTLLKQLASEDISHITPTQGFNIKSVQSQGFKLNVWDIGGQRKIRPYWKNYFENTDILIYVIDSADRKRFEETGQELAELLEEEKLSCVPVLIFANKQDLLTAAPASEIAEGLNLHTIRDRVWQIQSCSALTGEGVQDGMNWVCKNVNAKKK
Chain of ADP-ribosylation factor-like 3 (ARL3), full length (P36405 whole entry): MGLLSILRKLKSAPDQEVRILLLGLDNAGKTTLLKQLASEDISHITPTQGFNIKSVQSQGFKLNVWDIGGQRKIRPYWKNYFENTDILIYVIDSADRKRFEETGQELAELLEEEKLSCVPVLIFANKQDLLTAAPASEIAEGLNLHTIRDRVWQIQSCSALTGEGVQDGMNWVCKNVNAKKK
T2 sequence (P36405 17-182, stated change not applied): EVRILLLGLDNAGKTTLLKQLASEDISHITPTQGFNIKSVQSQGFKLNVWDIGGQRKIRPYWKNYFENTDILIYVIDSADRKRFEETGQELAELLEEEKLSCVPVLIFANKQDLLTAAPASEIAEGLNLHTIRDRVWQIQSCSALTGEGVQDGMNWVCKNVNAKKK

For the molecule `Nc1nc2c(ncn2[C@@H]2O[C@H](COP(=O)(O)OP(=O)(O)NP(=O)(O)O)[C@@H](O)[C@H]2O)c(=O)[nH]1` [GppNHp], the “% mantGDP binding relative to no unlabelled nucleotide” value on ARL3 (40 uM unlabelled GppNHp) came to 83.7%. For the same molecule, the “fluorescence polarisation nucleotide exchange, displacement of mantGDP” value on ARL3^ΔN (ARL3^17-182) is “ARL3^ΔN undergoes significant nucleotide exchange upon the addition of ARL13B”. On to `Nc1nc2c(ncn2[C@@H]2O[C@H](COP(=O)(O)OP(=O)(O)O)[C@@H](O)[C@H]2O)c(=O)[nH]1` [GDP], for which the “% mantGDP binding relative to no unlabelled nucleotide” value at ARL3 (40 uM unlabelled GDP) is given as “excess unlabelled GDP was able to compete with mantGDP”. Turning to `Nc1nc2c(ncn2[C@@H]2O[C@H](COP(=O)(O)OP(=O)(O)OP(=O)(O)O)[C@@H](O)[C@H]2O)c(=O)[nH]1` [GTP], the “% mantGDP binding relative to no unlabelled nucleotide” value on ARL3 (40 uM unlabelled GTP) was found to be 53%.

B1: GST-tagged binder of ARL2 (BART), full length (natural protein, human, UniProt Q9Y2Y0 1-163, looked up)
chain: MDALEGESFALSFSSASDAEFDAVVGYLEDIIMDDEFQLLQRNFMDKYYLEFEDTEENKLIYTPIFNEYISLVEKYIEEQLLQRIPEFNMAAFTTTLQHHKDEVAGDIFDMLLTFTDFLAFKEMFLDYRAEKEGRGLDLSSGLVVTSLCKSSSLPASQNNLRH
As to B1, the “acceleration by 20 µM BART of the exchange of 2 µM ARL3mantGDP with 150 µM unlabelled GDP and 10 µM ARL13B^18-278 (fluorescence polarisation)” value in experiment [1] is roughly 70 fold.
